Source: patent publication US11021470B2, “2-substituted quinazoline compounds comprising a substituted heterocyclic group and methods of use thereof” (Araxes Pharma LLC, priority 2015, dated 2021)

Molecular target: T1, KRAS G12C 1-169, his-tagged protein, GDP-loaded (Homo sapiens, UniProt P01116, G12C)
T1 construct: KRAS G12C 1-169, his-tagged protein, GDP-loaded
Test: KRAS G12C covalent binding (% modification) by mass spectrometry, ten or three minute incubation
Description: Test compounds were prepared as 10 mM stock solutions in DMSO (Fisher cat #BP-231-100). KRAS G12C 1-169, his-tagged protein, GDP-loaded was diluted to […] in buffer (20 mM Hepes, 150 mM NaCl, 1 mM MgCl2). Compounds were tested for activity as follows:
Compounds were diluted to 50× final test concentration in DMSO in 96-well storage plates. Compound stock solutions were vortexed before use and observed carefully for any sign of precipitation. Dilutions were as follow: • For 100 μM final compound concentration, compounds were diluted to 5000 μM (5 μl 10 mM compound stock+5 μl DMSO and mixed well by pipetting. • For 30 μM final compound concentration, compounds were diluted to 1500 μM (3 μl 10 mM compound stock+17 μl DMSO) and mixed well by pipetting. • For 10 μM final compound concentration, compounds were diluted to 500 μM (2 μl 10 mM compound stock+38 μl DMSO) and mixed well by pipetting. 49 μl of the stock protein solution was added to each well of a 96-well PCR plate (Fisher cat #1423027). 1 μl of the diluted 50× compounds were added to appropriate wells in the PCR plate using 12-channel pipettor. Reactions were mixed carefully and thoroughly by pipetting up/down with a 200 μl multi-channel pipettor. […] 5 μl of 2% formic acid (Fisher cat #A117) in DI H2O was then added to each well followed by mixing with a pipette. The plate was then resealed with aluminum seal and stored on dry ice until analyzed as described below.
The above described assays were analyzed by mass spectrometry according to one of the following two procedures:
The MS instrument is set to positive polarity, 2 GHz resolution, and low mass (1700) mode and allowed to equilibrate for 30 minutes. The instrument is then calibrated, switched to acquisition mode and the appropriate method loaded.
After another 30 minute equilibration time, a blank batch (i.e., buffer) is run to ensure equipment is operating properly. The samples are thawed at 37° C. for 10 minutes, briefly centrifuged, and transfer to the bench top. Wells A1 and H12 are spiked with 1 μL 500 μM internal standard peptide, and the plates centrifuged at 2000×g for 5 minutes. The method is then run and masses of each individual well recorded.
The masses (for which integration data is desired) for each well are pasted into the platemap and exported from the analysis. Masses for the internal standards are exported as well. The data at 50 ppm is extracted for the +19 charge state, and identity of well A1 is assigned using the internal standard spike and integrated. Peak data is exported as a TOF list and the above steps are repeated individually, for the +20, 21, 22, 23, 24, and 25 charge states.
The masses and peak intensities of KRAS G12C protein species were measured using a Dionex RSLCnano system (Thermo Scientific) connected to a Q Exactive Plus mass spectrometer (Thermo Scientific).
[…] of sample was each loaded onto a Aeris™ 3.6 μm WIDEPORE C4 200 Å, LC Column 50×2.1 mm column maintained at 40° C. at a flow rate of 600 μl min^−1 with […] (0.1% formic acid in acetonitrile). The liquid chromatography conditions were 20% solvent B for 1 min, 20% to 60% solvent B for 1.5 min, 60% to 90% solvent for 0.5 min, 90% solvent B for 0.2 min, 90% to 20% solvent B for 0.2 min, and then equilibrated for 1.6 min before the following sample injection. The flow rate was maintained at 600 μl min^−1 throughout the sample analysis.
The mass spectrometer was operated in profile mode at a resolution of 17500, 5 microscans, using 50 msec max injection time and an AGC target of 1e6, and a full mass range from 800-1850 m/z was recorded. The HCD trapping gas was optimized for maximum sensitivity for intact proteins. The ionization method was electrospray ionization, which used a spray voltage of 4 kV, sheath gas flow set to 50 au, auxiliary gas flow set to 10 au and sweep gas flow set to 1 au. […]

[1] = covalent binding to KRAS G12C, % modification after a three minute incubation period
[2] = covalent binding to KRAS G12C after a ten minute incubation period

## C=CC(=O)N1C[C@H](C)N(c2nc(N3CC(N(C)CCCCCN=[N+]=[N-])C3)nc3c(F)c(-c4c(O)cccc4F)c(Cl)cc23)C[C@H]1C [Compound 301, 1-((2R,5S)-4-(2-(3-((5-azidopentyl)(methyl)amino)azetidin-1-yl)-6-chloro-8-fluoro-7-(2-fluoro-6-hydroxyphenyl)quinazolin-4-yl)-2,5-dimethylpiperazin-1-yl)prop-2-en-1-one]
[1]
  Binding %: ++ (++ indicates binding activity from 50 to 90%)

## C=CC(=O)N1C[C@H](C)N(c2nc(N3CC(N(C)C)C3)nc3c(F)c(-c4c(O)cccc4F)c(Cl)cc23)C[C@@H]1C [Compound 94, 1-((2S,5S)-4-(6-chloro-2-(3-(dimethylamino)azetidin-1-yl)-8-fluoro-7-(2-fluoro-6-hydroxyphenyl)quinazolin-4-yl)-2,5-dimethylpiperazin-1-yl)prop-2-en-1-one]
[1]
  Binding %: + (+ indicates binding activity greater than 0% and up to 50%)

## C=CC(=O)N1C[C@H](C)N(c2nc(N3CC(N(C)C)C3)nc3c(F)c(-c4c(C)ccc5cn[nH]c45)c(Cl)cc23)C[C@H]1C (atropisomer, axis not shown) [Compound 73, 1-((2R,5S)-4-((S)-6-chloro-2-(3-(dimethylamino)azetidin-1-yl)-8-fluoro-7-(6-methyl-1H-indazol-7-yl)quinazolin-4-yl)-2,5-dimethylpiperazin-1-yl)prop-2-en-1-one]
[2]
  Binding %: ++ (++ indicates binding activity from 50 to 90%)

## C=CC(=O)N1CCN(c2nc(N3CC(N(C)C)C3)nc3c(F)c(-c4c(O)cccc4F)c(Cl)cc23)C[C@@H]1C [Compound 82, 1-((2S)-4-(6-chloro-2-(3-(dimethylamino)azetidin-1-yl)-8-fluoro-7-(2-fluoro-6-hydroxyphenyl)quinazolin-4-yl)-2-methylpiperazin-1-yl)prop-2-en-1-one]
[2]
  Binding %: ++ (++ indicates binding activity from 50 to 90%)

## C=CC(=O)N1C[C@H](C)N(c2nc(OCCO)nc3c(F)c(-c4c(O)cccc4F)c(Cl)cc23)C[C@H]1C [Compound 253, 1-((2R,5S)-4-(6-chloro-8-fluoro-7-(2-fluoro-6-hydroxyphenyl)-2-(2-hydroxyethoxy)quinazolin-4-yl)-2,5-dimethylpiperazin-1-yl)prop-2-en-1-one]
[1]
  Binding %: ++ (++ indicates binding activity from 50 to 90%)

## [2H]C([2H])([2H])N(C1CN(c2nc(N3C[C@@H](C)N(C(=O)C=C)C[C@@H]3C)c3cc(Cl)c(-c4c(O)cccc4F)c(F)c3n2)C1)C([2H])([2H])[2H] (atropisomer, axis not shown) [Compound 212, 1-((2R,5S)-4-(2-(3-(bis(tridueteromethyl)amino)azetidin-1-yl)-6-chloro-8-fluoro-7-((R)-2-fluoro-6-hydroxyphenyl)quinazolin-4-yl)-2,5-dimethylpiperazin-1-yl)prop-2-en-1-one]
[1]
  Binding %: + (+ indicates binding activity greater than 0% and up to 50%)

## C=CC(=O)N1C[C@H](C)N(c2nc(N3CC(N(C)C)C3)nc3c(F)c(-c4c(C)ccc5[nH]ncc45)c(Cl)cc23)C[C@H]1C (atropisomer, axis not shown) [Compound 130, 1-((2R,5S)-4-(6-chloro-2-(3-(dimethylamino)azetidin-1-yl)-8-fluoro-7-((R)-5-methyl-1H-indazol-4-yl)quinazolin-4-yl)-2,5-dimethylpiperazin-1-yl)prop-2-en-1-one]
[1]
  Binding %: +++ (+++ indicates binding activity greater than 90%)

## C=CC(=O)N1C[C@H](C)N(c2nc(N3CC(N(C)C)C3)nc3c(F)c(-c4c[nH]c5cccc(F)c45)c(Cl)cc23)C[C@H]1C [Compound 290, 1-((2R,5S)-4-(6-chloro-2-(3-(dimethylamino)azetidin-1-yl)-8-fluoro-7-(4-fluoro-1H-indol-3-yl)quinazolin-4-yl)-2,5-dimethylpiperazin-1-yl)prop-2-en-1-one]
[1]
  Binding %: + (+ indicates binding activity greater than 0% and up to 50%)

## C=CC(=O)N1C[C@H](C)N(c2nc(OCCN3CC(F)(F)C3)nc3c(F)c(-c4c(O)cccc4F)c(Cl)cc23)C[C@H]1C [Compound 89, 1-((2R,5S)-4-(6-chloro-2-(2-(3,3-difluoroazetidin-1-yl)ethoxy)-8-fluoro-7-((R)-2-fluoro-6-hydroxyphenyl)quinazolin-4-yl)-2,5-dimethylpiperazin-1-yl)prop-2-en-1-one]
[1]
  Binding %: + (+ indicates binding activity greater than 0% and up to 50%)

## C=CC(=O)N1C[C@H](C)N(c2nc(OCCCN3CC(F)(F)C3)nc3c(F)c(-c4c(O)cccc4F)c(Cl)cc23)C[C@H]1C [Compound 250, 1-((2R,5S)-4-(6-chloro-2-(3-(3,3-difluoroazetidin-1-yl)propoxy)-8-fluoro-7-(2-fluoro-6-hydroxyphenyl)quinazolin-4-yl)-2,5-dimethylpiperazin-1-yl)prop-2-en-1-one]
[1]
  Binding %: +++ (+++ indicates binding activity greater than 90%)

## C=CC(=O)N1C[C@H](C)N(c2nc(OCCc3ncc(C)n3C)nc3c(F)c(-c4c(O)cccc4F)c(Cl)cc23)C[C@H]1C (atropisomer, axis not shown) [Compound 289, 1-((2R,5S)-4-((S)-6-chloro-2-(2-(1,5-dimethyl-1H-imidazol-2-yl)ethoxy)-8-fluoro-7-(2-fluoro-6-hydroxyphenyl)quinazolin-4-yl)-2,5-dimethylpiperazin-1-yl)prop-2-en-1-one]
[1]
  Binding %: +++ (+++ indicates binding activity greater than 90%)

## C=CC(=O)N1C[C@H](C)N(c2nc(OCCN3CC(F)(F)C3)nc3c(F)c(-c4c(O)cccc4F)c(Cl)cc23)C[C@H]1C (atropisomer, axis not shown) [Compound 90, 1-((2R,5S)-4-(6-chloro-2-(2-(3,3-difluoroazetidin-1-yl)ethoxy)-8-fluoro-7-((S)-2-fluoro-6-hydroxyphenyl)quinazolin-4-yl)-2,5-dimethylpiperazin-1-yl)prop-2-en-1-one]
[1]
  Binding %: ++ (++ indicates binding activity from 50 to 90%)

## C=CC(=O)N1C[C@H](C)N(c2nc(N3CC(N(C)C)C3)nc3c(F)c(-c4c(C)ccc5c(C)n[nH]c45)c(Cl)cc23)C[C@H]1C [Compound 246, 1-((2R,5S)-4-(6-chloro-7-(3,6-dimethyl-1H-indazol-7-yl)-2-(3-(dimethylamino)azetidin-1-yl)-8-fluoroquinazolin-4-yl)-2,5-dimethylpiperazin-1-yl)prop-2-en-1-one]
[1]
  Binding %: + (+ indicates binding activity greater than 0% and up to 50%)

## C=CC(=O)N1C[C@H](C)N(c2nc(OCCn3cnc4ccccc43)nc3c(F)c(-c4c(O)cccc4F)c(Cl)cc23)C[C@H]1C [Compound 254, 1-((2R,5S)-4-(2-(2-(1H-benzo[d]imidazol-1-yl)ethoxy)-6-chloro-8-fluoro-7-(2-fluoro-6-hydroxyphenyl)quinazolin-4-yl)-2,5-dimethylpiperazin-1-yl)prop-2-en-1-one]
[1]
  Binding %: + (+ indicates binding activity greater than 0% and up to 50%)

## C=CC(=O)N1C[C@H](C)N(c2nc(N3CC(N(C)C)C3)nc3c(F)c(-c4c[nH]c5ncccc45)c(Cl)cc23)C[C@H]1C [Compound 300, 1-((2R,5S)-4-(6-chloro-2-(3-(dimethylamino)azetidin-1-yl)-8-fluoro-7-(1H-pyrrolo[2,3-b]pyridin-3-yl)quinazolin-4-yl)-2.5-dimethylpiperazin-1-yl)prop-2-en-1-one]
[1]
  Binding %: + (+ indicates binding activity greater than 0% and up to 50%)
